Source: PubChem BioAssay (NCI)
Values joined by “and” are separate entries in the source; they are usually repeats but may differ in a detail not shown here. Identical values can stand only once.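 How tested: cells in 96-well plates exposed to compound for 48 hours at five concentrations. Here, GI50 denotes the concentration required for 50% inhibition of growth. TGI denotes the concentration required for complete inhibition of growth.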 Where a SMILES comes first, the peptide text is derived from it. [ ]: non-standard residue; d: D form. Phe(F5) = N[CH](Cc1c(F)c(F)c(F)c(F)c1F)C(=O)O

How the values were obtained:
Test in all cases: growth of human tumour cells (NCI), 48 h
[1] = test system: TK-10 renal
[2] = test system: RXF 393 renal
[3] = test system: CAKI-1 renal
[4] = test system: CCRF-CEM leukemia
[5] = test system: M19-MEL melanoma
[6] = test system: HL-60(TB) leukemia
[7] = test system: DLD-1 colon
[8] = test system: MOLT-4 leukemia
[9] = test system: NCI-H460 lung
[10] = test system: HOP-92 NSCLC

SMILES | TGI [1] | TGI [2] | TGI [3] | TGI [4] | TGI [5] | TGI [6] | TGI [7] | TGI [8] | TGI [9] | TGI [10] | GI50 [2] | GI50 [3] | GI50 [4] | GI50 [6] | GI50 [8] | GI50 [9] | GI50 [1] | GI50 [10]
CN(C)c1ccc2c(NCCCCCCNc3ccnc4cc(N(C)C)ccc34)ccnc2c1 | 32.2 µM | 38.4 µM | > 100 µM | > 100 µM | 95.3 µM | > 100 µM | > 100 µM | > 100 µM | 57 µM | – | – | – | – | – | – | – | – | –
O=C(NCCCCCCNC(=O)c1cccc2ccccc12)c1cccc2ccccc12 | 36.9 µM | 23.8 µM | 66.3 µM | > 100 µM | – | > 100 µM | > 100 µM | > 100 µM | > 100 µM | 25.8 µM | – | – | – | – | – | – | – | –
O=C(CCn1[nH]c(=O)c(Cl)c(Cl)c1=O)NOCCCc1ccccc1 | > 100 µM | – | > 100 µM | > 100 µM | > 100 µM | > 100 µM | > 100 µM | > 100 µM | > 100 µM | > 100 µM | – | – | – | – | – | – | – | –
COC(=O)[C@@H]1CSC(=S)N1C(=O)C[C@H]1CC=CC[C@H]1CC(=O)Sc1ccccc1 | – | 30.4 µM | – | 14.9 µM | 47.1 µM | 14 µM | 35.3 µM | 16.7 µM | 33.5 µM | – | – | – | – | – | – | – | – | –
COC(=O)C(CC(C)C)NC(=O)C(Cc1cnc[nH]1)NC(=O)CNC(=O)C(NC(=O)C(C)NC(=O)C(Cc1c[nH]c2ccccc12)NC(=O)C(CCC(=O)O)NC(=O)C(N)Cc1c(F)c(F)c(F)c(F)c1F)C(C)C (centres undefined) (H-[Phe(F5)]EWAVGHL-OMe; configuration not given here) | – | > 100 µM | > 100 µM | > 100 µM | > 100 µM | > 100 µM | > 100 µM | > 100 µM | > 100 µM | – | > 100 µM | > 100 µM | > 100 µM | > 100 µM | > 100 µM | > 100 µM | – | –
COc1cccc(C2=C(c3cn(C)c4ccccc34)C(=O)NC2=O)c1 | > 25 µM | > 25 µM | > 25 µM | > 25 µM | – | > 25 µM | – | > 25 µM | > 25 µM | > 25 µM | 6.43 µM | 7.9 µM | 9.01 µM | 11.2 µM | 8.54 µM | 13.7 µM | 13.3 µM | > 25 µM
Fc1ccc(-c2nc3n(c2-c2ccncc2)CCS3)cc1 | > 25 µM | > 25 µM | > 25 µM | > 25 µM | – | > 25 µM | – | > 25 µM | > 25 µM | > 25 µM | > 16.5 µM | > 25 µM | > 25 µM | > 25 µM | > 25 µM | > 25 µM | > 25 µM | > 25 µM
COc1cc2c(cc1OC)-c1ccc3cc4c(cc3c1N(CCN1CCCC1)C2)OCO4 | 12.5 µM | 2.72 µM | 11.5 µM | 4.36 µM | – | 2.7 µM | – | 3.44 µM | 1.17 µM | 12 µM | 0.794 µM | 0.814 µM | 0.186 µM | 0.882 µM | 0.228 µM | 0.289 µM | 3.46 µM | 1.79 µM
CC1CC2C(=O)NC(=O)C2c2[nH]c3ccccc3c21 (centres undefined) | – | – | > 100 µM | > 100 µM | > 100 µM | > 100 µM | > 100 µM | > 100 µM | > 100 µM | > 100 µM | – | – | – | – | – | – | – | –
O=c1cc(CNc2cc(F)cc(F)c2)c2ccc(I)cc2[nH]1 | > 100 µM | 38 µM | > 100 µM | > 57.7 µM | – | > 51.1 µM | – | > 100 µM | > 100 µM | > 100 µM | 0.374 µM | 0.421 µM | 0.498 µM | 0.337 µM | 1.06 µM | 0.427 µM | > 100 µM | 1.42 µM
C=C1C(=O)O[C@H]2C[C@@H](C)[C@@H]3CC(=O)OC[C@@]3(C)CC12 (some centres undefined) | 55.2 µM | – | 51 µM | 55.6 µM | > 100 µM | – | 74.3 µM | 57.3 µM | 51 µM | 34.8 µM | – | – | – | – | – | – | – | –
COc1cc(Cn2cc3c(c2)-c2oncc2CC3)cc(OC)c1OC | > 100 µM | > 100 µM | > 42.1 µM | 16.7 µM | – | 0.456 µM | – | 13.1 µM | 1.5 µM | > 100 µM | 0.0255 µM | 0.0337 µM | 0.0193 µM | < 0.0177 µM | 0.0338 µM | 0.034 µM | 5.77 µM | 31 µM
Fc1ccc2[nH]cc(Cc3c[nH]c4ccc(F)cc34)c2c1 | 68.6 µM | 42.8 µM | 34.3 µM | 64.5 µM | – | > 100 µM | – | 22.1 µM | > 100 µM | 34.1 µM | 18.2 µM | 12.1 µM | 16.7 µM | 37.4 µM | 1.97 µM | 25.3 µM | 28.9 µM | 15.4 µM
CC(C)(O)c1ccc(N2CCN(c3nnc(Cc4ccccc4)c4ccccc34)CC2)nc1 | 38.1 µM | 23.6 µM | 30.9 µM | > 93 µM | – | 31.1 µM | – | 25.7 µM | 34.3 µM | 38.7 µM | 6.76 µM | 11.3 µM | 8.26 µM | 7.44 µM | 5.4 µM | 9.83 µM | 13.4 µM | 7.74 µM
Nc1nc(/C=C\c2ccc([N+](=O)[O-])o2)nc(N2CCN(c3ccccc3)CC2)n1 | 32 µM | 41.5 µM | 10.8 µM | 82.3 µM | – | 61.8 µM | – | > 100 µM | > 100 µM | 44.3 µM | 2.94 µM | 3.5 µM | 8.01 µM | 7.73 µM | 8.39 µM | 3.09 µM | 5.77 µM | 6.86 µM
O=C(O)CS(=O)(=O)C(c1ccccc1)c1ccccc1 | > 100 µM | > 100 µM | > 100 µM | > 100 µM | – | > 100 µM | – | > 100 µM | > 100 µM | > 100 µM | – | – | – | – | – | – | – | –
CC1=CC(=O)c2c(O)cccc2C1=O | 3.14 µM | 3.07 µM | 3.24 µM | 0.621 µM | – | 0.398 µM | – | 0.762 µM | > 26.1 µM | 1.43 µM | – | – | – | – | – | – | – | –
O=C(Nc1cccc(Cl)c1)Nc1ncc(CCNc2ncnc3ccsc23)s1 | 16.1 µM and > 10 µM | 10.1 µM and > 10 µM | 22.8 µM and > 10 µM | > 100 µM | – | 28.9 µM and > 10 µM | – | > 27.8 µM and 4.99 µM | > 72.2 µM | 10.9 µM and > 10 µM | 1.93 µM and 2.16 µM | 1.12 µM and 1.34 µM | < 0.01 µM and 0.00391 µM | 4.93 µM and 3.37 µM | 2.85 µM and 1.73 µM | 0.114 µM and 0.991 µM | 3.46 µM and 4.18 µM | 0.549 µM and 1.55 µM
